Measured values from ChEMBL document CHEMBL3396992, “Synthesis and biological evaluation of pyrazolylthiazole carboxylic acids as potent anti-inflammatory-antimicrobial agents” (2015).
Converted amounts (≈) assume the structure as drawn. The source made the active and inactive calls. The rule behind the calls is not given here.

Key:
Staphylococcus aureus [1] = test: Antimicrobial activity against Staphylococcus aureus MTCC 96 assessed as growth inhibition at 4 mg/ml after 24 hrs by agar well diffusion method; format: functional; settings: for zone of inhibition at 4000 µg/mL: MTCC 96, 24 h, read-out: DIZ
Bacillus subtilis [2] = test: Antimicrobial activity against Bacillus subtilis MTCC 121 assessed as growth inhibition at 4 mg/ml after 24 hrs by agar well diffusion method; format: functional; settings: for zone of inhibition at 4000 µg/mL: MTCC 121, 24 h, read-out: DIZ
Bacillus subtilis [3] = test: Antimicrobial activity against Bacillus subtilis MTCC 121 assessed as growth inhibition after 24 hrs by agar well diffusion method; format: functional
Pseudomonas aeruginosa [4] = test: microbe, parasite or virus in culture; settings: MTCC 741, 24 h, read-out: DIZ
Description: (§1) Antimicrobial activity against Pseudomonas aeruginosa MTCC 741 assessed as growth inhibition at 4 mg/ml after 24 hrs by agar well diffusion method

Rattus norvegicus [5] = test: Antiinflammatory activity against carrageenan-induced paw edema male Wistar albino rat assessed as edema volume at 10 mg/kg, ip administered 30 mins prior to carrageenan-challenge measured after 1 hr (reference value: 1.11 +/- 0.12 mL); format: functional; settings: route intraperitoneal
Rattus norvegicus [6] = test: Antiinflammatory activity against carrageenan-induced paw edema male Wistar albino rat assessed as edema volume at 10 mg/kg, ip administered 30 mins prior to carrageenan-challenge measured after 2 hrs (reference value: 1.21 +/- 0.16 mL); format: functional; settings: route intraperitoneal
Rattus norvegicus [7] = test: Antiinflammatory activity against carrageenan-induced paw edema male Wistar albino rat assessed as edema volume at 10 mg/kg, ip administered 30 mins prior to carrageenan-challenge measured after 3 hrs (reference value: 1.73 +/- 0.09 mL); format: functional; settings: route intraperitoneal
Rattus norvegicus [8] = test: Antiinflammatory activity against carrageenan-induced paw edema male Wistar albino rat assessed as edema volume at 10 mg/kg, ip administered 30 mins prior to carrageenan-challenge measured after 4 hrs (reference value: 1.88 +/- 0.20 mL); format: functional; settings: route intraperitoneal
Rattus norvegicus [9] = test: Antiinflammatory activity against carrageenan-induced paw edema male Wistar albino rat at 10 mg/kg, ip administered 30 mins prior to carrageenan-challenge measured after 1 hr relative to control; format: functional; settings: route intraperitoneal
Rattus norvegicus [10] = test: Antiinflammatory activity against carrageenan-induced paw edema male Wistar albino rat at 10 mg/kg, ip administered 30 mins prior to carrageenan-challenge measured after 2 hrs relative to control; format: functional; settings: route intraperitoneal
Rattus norvegicus [11] = test: Antiinflammatory activity against carrageenan-induced paw edema male Wistar albino rat at 10 mg/kg, ip administered 30 mins prior to carrageenan-challenge measured after 3 hrs relative to control; format: functional; settings: route intraperitoneal
Rattus norvegicus [12] = test: Antiinflammatory activity against carrageenan-induced paw edema male Wistar albino rat at 10 mg/kg, ip administered 30 mins prior to carrageenan-challenge measured after 4 hrs relative to control; format: functional; settings: route intraperitoneal
Rattus norvegicus [13] = test: Antiinflammatory activity against carrageenan-induced paw edema male Wistar albino rat assessed as edema volume at 50 mg/kg, po administered 30 mins prior to carrageenan-challenge measured after 1 hr (reference value: 1.11 +/- 0.12 mL); format: functional
Rattus norvegicus [14] = test: Antiinflammatory activity against carrageenan-induced paw edema male Wistar albino rat assessed as edema volume at 50 mg/kg, ip administered 30 mins prior to carrageenan-challenge measured after 2 hrs (reference value: 1.21 +/- 0.16 mL); format: functional; settings: route intraperitoneal
Rattus norvegicus [15] = test: Antiinflammatory activity against carrageenan-induced paw edema male Wistar albino rat assessed as edema volume at 50 mg/kg, ip administered 30 mins prior to carrageenan-challenge measured after 3 hrs (reference value: 1.73 +/- 0.09 mL); format: functional; settings: route intraperitoneal
Rattus norvegicus [16] = test: Antiinflammatory activity against carrageenan-induced paw edema male Wistar albino rat assessed as edema volume at 50 mg/kg, ip administered 30 mins prior to carrageenan-challenge measured after 4 hrs (reference value: 1.88 +/- 0.20 mL); format: functional; settings: route intraperitoneal
Rattus norvegicus [17] = test: Antiinflammatory activity against carrageenan-induced paw edema male Wistar albino rat at 50 mg/kg, ip administered 30 mins prior to carrageenan-challenge measured after 1 hr relative to control; format: functional; settings: route intraperitoneal
Rattus norvegicus [18] = test: Antiinflammatory activity against carrageenan-induced paw edema male Wistar albino rat at 50 mg/kg, ip administered 30 mins prior to carrageenan-challenge measured after 2 hrs relative to control; format: functional; settings: route intraperitoneal
Rattus norvegicus [19] = test: Antiinflammatory activity against carrageenan-induced paw edema male Wistar albino rat at 50 mg/kg, ip administered 30 mins prior to carrageenan-challenge measured after 3 hrs relative to control; format: functional; settings: route intraperitoneal
Rattus norvegicus [20] = test: Antiinflammatory activity against carrageenan-induced paw edema male Wistar albino rat at 50 mg/kg, ip administered 30 mins prior to carrageenan-challenge measured after 4 hrs relative to control; format: functional; settings: route intraperitoneal
Staphylococcus aureus [21] = test: Antimicrobial activity against Staphylococcus aureus MTCC 96 assessed as growth inhibition after 24 hrs by agar well diffusion method; format: functional
Escherichia coli = test: Antimicrobial activity against Escherichia coli MTCC 1652 assessed as growth inhibition at 4 mg/ml after 24 hrs by agar well diffusion method; format: functional, organism-based
Saccharomyces cerevisiae [22] = test: Antimicrobial activity against Saccharomyces cerevisiae MTCC 170 assessed as growth inhibition at 4 mg/ml after 24 hrs by agar well diffusion method; format: functional; settings: for zone of inhibition at 4000 µg/mL: MTCC 170, 24 h, read-out: DIZ
Saccharomyces cerevisiae [23] = test: Antimicrobial activity against Saccharomyces cerevisiae MTCC 170 assessed as growth inhibition after 24 hrs by agar well diffusion method; format: functional
Candida albicans [24] = test: Antimicrobial activity against Candida albicans MTCC 3017 assessed as growth inhibition at 4 mg/ml after 24 hrs by agar well diffusion method; format: functional; settings: MTCC 3017, 24 h, read-out: DIZ
Candida albicans [25] = test: Antimicrobial activity against Candida albicans MTCC 3017 assessed as growth inhibition after 24 hrs by agar well diffusion method; format: functional; settings: MTCC 3017, 24 h
Pseudomonas aeruginosa [26] = settings: MTCC 741, 4 mg/ml
Description: as §1

| Compound | zone of inhibition at 4000 µg/mL (Staphylococcus aureus [1]) [mm] | zone of inhibition at 4000 µg/mL (Bacillus subtilis [2]) [mm] | MIC (Bacillus subtilis [3]; MTCC 121, 24 h) [µg/mL] | Activity (Rattus norvegicus [13]) [mL] | Activity (Rattus norvegicus [14]) [mL] | Activity (Rattus norvegicus [15]) [mL] | Activity (Rattus norvegicus [16]) [mL] | Activity (Rattus norvegicus [17]) [%] | Activity (Rattus norvegicus [18]) [%] | Activity (Rattus norvegicus [19]) [%] | Activity (Rattus norvegicus [20]) [%] | diameter of the inhibition zone (DIZ) (Escherichia coli) | zone of inhibition at 4000 µg/mL (Saccharomyces cerevisiae [22]) [mm] | MIC (Saccharomyces cerevisiae [23]; MTCC 170, 24 h) [µg/mL] | zone of inhibition at 4000 µg/mL (Candida albicans [24]) [mm] | MIC (Candida albicans [25]) [µg/mL] | DIZ (Pseudomonas aeruginosa [26]) | diameter of the inhibition zone (DIZ) (Staphylococcus aureus [1]) | MIC (Staphylococcus aureus [21]) | diameter of the inhibition zone (DIZ) (Saccharomyces cerevisiae [22]) | also measured |
| --- | --- | --- | --- | --- | --- | --- | --- | --- | --- | --- | --- | --- | --- | --- | --- | --- | --- | --- | --- | --- | --- |
| O=C(O)c1cn(C2CC2)c2cc(N3CCNCC3)c(F)cc2c1=O [CIPROFLOXACIN] | 24 | 24 | 6.25 (≈ 18.9 µM) |  |  |  |  |  |  |  |  |  |  |  |  |  |  |  |  |  | zone of inhibition at 4000 µg/mL (Pseudomonas aeruginosa [4]): 22 mm |
| COc1ccc2c(c1)c(CC(=O)O)c(C)n2C(=O)c1ccc(Cl)cc1 [INDOMETHACIN] |  |  |  |  |  |  |  |  |  |  |  |  |  |  |  |  |  |  |  |  | Activity (Rattus norvegicus [5]): 0.07 mL; Activity (Rattus norvegicus [6]): 0.14 mL; Activity (Rattus norvegicus [7]): 0.15 mL; Activity (Rattus norvegicus [8]): 0.16 mL; Activity (Rattus norvegicus [9]): 93.69%; Activity (Rattus norvegicus [10]): 88.42%; Activity (Rattus norvegicus [11]): 91.32%; Activity (Rattus norvegicus [12]): 91.48% |
| COc1ccc(-c2nn(-c3ccccc3)cc2-c2nc(-c3ccc(OC)cc3)c(C(=O)O)s2)cc1 | 16.3 | 16.3 | 50 (≈ 103 µM) | 0.13 | 0.24 | 0.2 | 0.19 | 82.88 | 86.77 | 88.43 | 89.89 | inactive | 13.3 | 50 (≈ 103 µM) | 13 | 50 (≈ 103 µM) | inactive |  |  |  | MIC (Staphylococcus aureus [21]; MTCC 96, 24 h): 50 µg/mL (≈ 103 µM) |
| O=C(O)c1sc(-c2cn(-c3ccccc3)nc2-c2ccc(Cl)cc2)nc1-c1ccc(Cl)cc1 |  | 16.6 | 50 (≈ 102 µM) | 0.26 | 0.23 | 0.43 | 0.28 | 76.57 | 80.99 | 75.14 | 85.1 | inactive | 24.6 | 12.5 (≈ 25.4 µM) | 23.6 | 12.5 (≈ 25.4 µM) | inactive | inactive | inactive |  |  |
| CCOC(=O)c1sc(-c2cn(-c3ccccc3)nc2-c2ccc(F)cc2)nc1-c1ccccc1 |  |  |  | 0.26 | 0.32 | 0.33 | 0.45 | 76.57 | 73.55 | 80.92 | 76.06 | inactive |  |  | 16.6 | 50 (≈ 106 µM) | inactive | inactive | inactive | inactive | diameter of the inhibition zone (DIZ) (Bacillus subtilis [2]): inactive; MIC (Bacillus subtilis [3]): inactive; MIC (Saccharomyces cerevisiae [23]): inactive |
| COc1ccc(-c2nc(-c3cn(-c4ccccc4)nc3-c3ccccc3)sc2C(=O)O)cc1 | 20.3 | 17.6 | 50 (≈ 110 µM) | 0.19 | 0.25 | 0.24 | 0.22 | 82.88 | 79.33 | 86.12 | 88.29 | inactive | 21.3 | 25 (≈ 55.1 µM) | 15.3 | 50 (≈ 110 µM) | inactive |  |  |  | MIC (Staphylococcus aureus [21]; MTCC 96, 24 h): 25 µg/mL (≈ 55.1 µM) |
| COc1ccc(-c2nn(-c3ccccc3)cc2-c2nc(-c3ccc(F)cc3)c(C(=O)O)s2)cc1 | 12 | 12 | 50 (≈ 106 µM) | 0.19 | 0.22 | 0.31 | 0.18 | 82.88 | 81.81 | 82.08 | 90.42 | inactive | 15.3 | 50 (≈ 106 µM) | 12 | 50 (≈ 106 µM) | inactive |  |  |  | MIC (Staphylococcus aureus [21]; MTCC 96, 24 h): 50 µg/mL (≈ 106 µM) |
| CCOC(=O)c1sc(-c2cn(-c3ccccc3)nc2-c2ccccc2)nc1-c1ccc(Cl)cc1 |  |  |  | 0.22 | 0.15 | 0.24 | 0.22 | 80.18 | 87.6 | 87.23 | 87.23 | inactive |  |  | 17.3 | 50 (≈ 103 µM) | inactive | inactive | inactive | inactive | diameter of the inhibition zone (DIZ) (Bacillus subtilis [2]): inactive; MIC (Bacillus subtilis [3]): inactive; MIC (Saccharomyces cerevisiae [23]): inactive |
| CCOC(=O)c1sc(-c2cn(-c3ccccc3)nc2-c2ccc(F)cc2)nc1-c1ccc(Cl)cc1 |  |  |  | 0.17 | 0.22 | 0.34 | 0.26 | 84.68 | 81.81 | 80.34 | 86.17 | inactive |  |  | 17.6 | 50 (≈ 99.2 µM) | inactive | inactive | inactive | inactive | diameter of the inhibition zone (DIZ) (Bacillus subtilis [2]): inactive; MIC (Bacillus subtilis [3]): inactive; MIC (Saccharomyces cerevisiae [23]): inactive |
| CCOC(=O)c1sc(-c2cn(-c3ccccc3)nc2-c2ccc(Cl)cc2)nc1-c1ccccc1 |  | 12 | 50 (≈ 103 µM) | 0.12 | 0.22 | 0.32 | 0.28 | 89.89 | 81.81 | 81.5 | 85.1 | inactive |  |  | 16 | 50 (≈ 103 µM) | inactive | inactive | inactive | inactive | MIC (Saccharomyces cerevisiae [23]): inactive |
| COc1ccc(-c2nc(-c3cn(-c4ccccc4)nc3-c3ccc(Cl)cc3)sc2C(=O)O)cc1 |  | 18.3 | 25 (≈ 51.2 µM) | 0.15 | 0.19 | 0.16 | 0.21 | 86.48 | 89.29 | 90.75 | 88.82 | inactive | 12 | 50 (≈ 102 µM) | 25.3 | 12.5 (≈ 25.6 µM) | inactive | inactive | inactive |  |  |
